According to patent publication US11440907B1 (Merck Patent GmbH, priority 2018, dated 2022):

Tests used:
[1] = test system: β-catenin-TCF-mediated reporter transcription activity in Colo 205 cells; assay: Colo 205 reporter assay (TCF/LEF promoter-driven firefly luciferase); assay type: cell-based; conditions: Homo sapiens; Colo 205 TCF/LEF luciferase reporter, 5 hours after compound addition, 384 well; read-out: Colo205 IC50
[2] = test system: XBP1(u)-luciferase splicing reporter in HepG2 hepatoma cells; assay: HepG2 XBP1 reporter assay (XBP1(u)-Luc); assay type: cell-based; conditions: Homo sapiens, 6 hours after compound addition; for EC50: Table 3, read-out: XBP1-luc HepG2 1 EC50; for IC50: Table 4
[3] = test system: intracellular calcium flux in Colo-205 cells; assay: Calcium flux assay (FLIPR Calcium 5 Assay Kit, FLIPR3); assay type: cell-based; conditions: Homo sapiens, 0.6 h, calcium flux measured over 36 minutes, read-out: Colo 205 Calcium Flux assay 384w Boston Ca assay FLIPR3 Colo EC50
Experimental: Compounds described herein induced ER stress by causing intracellular calcium flux. Calcium flux was measured in Colo-205 cells using the FLIPR® Calcium 5 Assay Kit according to manufacturer's protocol (Molecular Devices, Cat. #R8186) on a FLIPR3 system (Molecular Devices). Calcium flux is measured over 36 minutes. The Colo-205 calcium flux assay data are summarized in Table 3: A<0.6 μM; 0.6 μM≤B<2.0 μM; 2.0 μM≤C<10.0 μM; D≥10.0 μM.

[4] = test system: NCI-H929 (Multiple myeloma cells); assay: Cell viability (ATPLite) in NCI-H929; assay type: cell-based; conditions: Homo sapiens, 96 hours
Procedure, shortened: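 Cells were seeded at 500/well and, after 24 h, treated with compound at 100 nM or 2 uM for 0 or 96 hours. Viability was measured by ATPLite cellular ATP read-out.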

[5] = test system: DU4475 (breast cancer cells); assay: Cell viability (ATPLite) in DU4475; assay type: cell-based; conditions: Homo sapiens, DU-4475, 96 hours
Experimental: Cells were removed from liquid nitrogen storage, thawed and expanded in appropriate growth media. Once expanded, cells were seeded in 384-well tissue culture treated plates at 500 cells per well. After 24 hours, cells were treated for either 0 hours or treated for 96 hours with a testing compound (at the concentrations of 100 nM and 2 uM). At the end of either 0 hours or 96 hours, cell status was analyzed using ATPLite (Perkin Elmer) to assess the biological response of cells to the testing compound.

Compound | IC50 [1] [nM] | melting point [°C] | EC50 [2] [nM] | EC50 [3] [nM] | IC50 [2] [nM] | IC50 [4] [nM] | IC50 [5] [nM]
COc1ccc(Cl)c(C2CCCCCN2c2cc(C)nc(N)n2)c1 (racemic) [I-117, (+/−)-4-(2-(2-chloro-5-methoxyphenyl)azepan-1-yl)-6-methylpyrimidin-2-amine] | 300 to 1000 | 88 to 90 | – | – | – | – | –
COc1ccc(Cl)c(C2COCCCN2c2cc(C)nc(N)n2)c1 (racemic) [I-118, (+/−)-4-(3-(2-chloro-5-methoxyphenyl)-1,4-oxazepan-4-yl)-6-methylpyrimidin-2-amine] | 300 to 1000 | 220 | – | – | – | – | –
Cc1cc(N2CCCOC[C@H]2c2ccc(C#N)cc2Cl)nc(N)n1 (single isomer, unassigned) [I-96] | – | 220 | – | – | – | – | –
Cc1cc(N2CCCN(S(C)(=O)=O)CC2c2ccccc2Cl)nc(N)n1 (racemic) [I-28, (+/−)-4-(2-(2-chlorophenyl)-4-(methylsulfonyl)-1,4-diazepan-1-yl)-6-methylpyrimidin-2-amine] | – | 278 to 280 | – | – | – | – | –
Cc1cc(N2CCCOC[C@@H]2c2ccc(Br)cc2Cl)nc(N)n1 (single isomer, unassigned) [I-201] | 300 to 1000 | 100 to 102 | < 600 | < 600 | – | – | –
CCNc1cc(C2COCCCN2c2cc(C)nc(N)n2)c(Cl)cc1F (racemic) [I-272, (+/−)-4-[3-[2-chloro-5-(ethylamino)-4-fluoro-phenyl]-1,4-oxazepan-4-yl]-6-methyl-pyrimidin-2-amine] | 300 to 1000 | 180 | 600 to 2000 | – | – | – | –
Cc1cc(N2CCCOCC2c2cc(NC(=O)CN(C)C)ccc2Cl)nc(N)n1 (racemic) [I-168, (+/−)-N-[3-[4-(2-amino-6-methyl-pyrimidin-4-yl)-1,4-oxazepan-3-yl]-4-chloro-phenyl]-2-(dimethylamino)acetamide] | 300 to 1000 | 95 to 97 | – | – | – | – | –
Cc1cc(N2CCCOC[C@H]2c2ccccc2Cl)nc(N)n1 (single isomer, unassigned) [I-30] | – | 156 to 160 | – | – | – | – | –
Cc1cc(N2CCCOC[C@@H]2c2cc(NS(C)(=O)=O)ccc2Cl)nc(N)n1 (single isomer, unassigned) [I-161] | < 300 | 160 | < 600 | – | – | – | –
Cc1cc(N2CCCOCC2c2ccc(NC(=O)C(F)F)cc2Cl)nc(N)n1 (racemic) [I-278, (+/−)-N-(4-(4-(2-amino-6-methylpyrimidin-4-yl)-1,4-oxazepan-3-yl)-3-chlorophenyl)-2,2-difluoroacetamide] | < 300 | 188 to 190 | < 600 | – | – | – | –
Cc1cc(N2CCCOCC2c2cc3c(cc2Cl)N(C)CC3)nc(N)n1 (stereo not shown) [C-32] | – | – | – | – | < 600 | < 1000 | < 1000
Cc1cc(N2CCCOCC2c2cc(C)c(N)cc2Cl)nc(N)n1 (stereo not shown) [C-16] | – | – | – | – | < 600 | < 1000 | < 1000
Cc1cc(N2CCCOCC2c2ccc(OC[C@@H](O)CO)cc2Cl)nc(N)n1 (stereo partly drawn) [C-42, (S)-3-{4-[4-(2-Amino-6-methyl-pyrimidin-4-yl)-[1,4]oxazepan-3-yl]-3-chloro-phenoxy}-propane-1,2-diol] | – | – | – | – | 600 to 2000 | < 1000 | < 1000
COc1cc(Cl)c([C@H]2COCCCN2c2cc(C)nc(N)n2)cc1O [C-36] | – | – | – | – | < 600 | < 1000 | < 1000
Cc1cc(N2CCCOCC2c2cc(C)c(F)cc2Cl)nc(N)n1 (stereo not shown) [C-38] | – | – | – | – | 2000 to 5000 | 1000 to 10000 | 1000 to 10000
Cc1cc(N2CCCOCC2c2cc3c(cc2Cl)n(C)c(=O)n3C)nc(N)n1 (stereo not shown) [C-20] | – | – | – | – | < 600 | < 1000 | < 1000
Cc1cc(N2CCCOC[C@@H]2c2cc(S(C)(=O)=O)ccc2Cl)nc(N)n1 (single isomer, unassigned) [I-103] | – | 120 | – | – | – | – | –
CCOc1cc(Cl)c(C2COCCCN2c2cc(C)nc(N)n2)cc1OC (stereo not shown) [C-23] | – | – | – | – | < 600 | < 1000 | < 1000
Cc1cc(N2CCCOCC2c2cc(F)c(F)cc2Cl)nc(N)n1 (stereo not shown) [C-4] | – | – | – | – | 600 to 2000 | 1000 to 10000 | 1000 to 10000
COc1cc(C2CCCCCN2c2cc(C)nc(N)n2)c(OC)cn1 (racemic) [I-116, (+/−)-4-[2-(2,5-dimethoxy-4-pyridyl)azepan-1-yl]-6-methyl-pyrimidin-2-amine] | – | 107 to 109 | – | – | – | – | –
COc1cc(Cl)c(C2COCCCN2c2cc(C)nc(N)n2)cc1OC(C)C (stereo not shown) [C-39] | – | – | – | – | 600 to 2000 | 1000 to 10000 | < 1000
COc1cc(Cl)c(C2COCCCN2c2cc(C)nc(N)n2)cc1Cl (stereo not shown) [C-19] | – | – | – | – | 600 to 2000 | 1000 to 10000 | < 1000
Cc1cc(N2CCCOCC2c2cc3c(cc2Cl)OCC(=O)N3)nc(N)n1 (stereo not shown) [C-5] | – | – | – | – | < 600 | < 1000 | < 1000
Cc1cc(N2CCCOCC2c2cc(N3CCCC3=O)ccc2Cl)nc(N)n1 (racemic) [I-119, 1-(3-(4-(2-amino-6-methylpyrimidin-4-yl)-1,4-oxazepan-3-yl)-4-chlorophenyl)pyrrolidin-2-one] | 300 to 1000 | 138 to 140 | – | – | – | – | –
Cc1cc(N2CCCOCC2c2cc3c(cc2Cl)OCCCO3)nc(N)n1 (stereo not shown) [C-13] | – | – | – | – | < 600 | 1000 to 10000 | < 1000
Cc1cc(N2CCCOCC2c2cc(C(O)C(F)(F)F)ccc2Cl)nc(N)n1 (racemic) [I-134, (+/−)-1-(3-(4-(2-amino-6-methylpyrimidin-4-yl)-1,4-oxazepan-3-yl)-4-chlorophenyl)-2,2,2-trifluoroethan-1-ol] | 300 to 1000 | 110 | – | – | – | – | –
